We go through 14 compounds from PubChem BioAssay (NCI).

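Grown in 96-well plates, cells were treated for 48 hours with each compound at five concentrations. Insufficient inhibition: endpoint recorded as highest concentration tested. The concentration for 50% growth inhibition is given as GI50. Definition used: TGI = concentration required for complete inhibition of growth.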 Some results are limits rather than exact numbers.

Assay in all cases: growth of human tumour cells (NCI), 48 h
Assay [1] concerns NCI-H460 lung.
Assay [2] relates to M14 melanoma.
Assay [3] deals with HL-60(TB) leukemia.
Assay [4] has as its system MDA-MB-231 breast.
In assay [5] the test system is SK-MEL-28 melanoma.
Assay [6] has as its system KM12 colon.
The subject of assay [7] is SF-539 CNS.
The test system of assay [8] is MDA-N.
Assay [9] has as its system OVCAR-4 ovarian.
The test system of assay [10] is NCI/ADR-RES ovarian.

Regarding `O=C1C(c2c(O)[nH]c3ccc(I)cc23)=Nc2ccccc21`, the TGI in [1] is above 88.6 µM; in assay [2], above 100 µM; in [3], above 100 µM; in assay [4], 8.47 µM; in assay [5], above 86.3 µM; in assay [6], above 100 µM. In addition, the TGI in assay [7] is 23.3 µM; in assay [8], above 100 µM; in [9] it was above 44.7 µM; in [10], above 100 µM.
For the compound `CCOC(=O)[C@H](CO)Nc1c(O)c2c(c(O)c1Cl)C(=O)C=CC2=O`, the TGI in [1], in assay [2], in assay [3], in assay [4], in assay [5] and in assay [6] was above 10 µM throughout. Also, the TGI in [7], in assay [8], in [9] and in [10] was above 10 µM in each case.
On to `Cc1csc2c(=O)n(COCc3ccccc3)c(=O)[nH]c12`, for which the TGI in assay [1], in assay [2], in [3], in [4], in assay [5] and in assay [6] was above 100 µM in each case. The TGI in assay [7], in assay [8], in [9] and in assay [10] was above 100 µM throughout.
Consider `Nc1nc(N)c2nc(CNc3ccc(C(=O)NC(CCNC(=O)c4ccccc4C(=O)O)C(=O)O)cc3)cnc2n1` (stereo unspecified), for which the GI50 in [1] is 0.0144 µM; in [2], 0.0737 µM; in assay [7] it was 0.0574 µM. Further, the TGI in [1], in assay [2], in assay [3], in assay [4], in assay [5] and in assay [6] was above 100 µM in each case. The TGI in [8], in [9] and in [10] was above 100 µM each time.
Regarding `N#Cc1c(O)c(C=O)c(=O)n2c1[nH]c1ccccc12`, the TGI in assay [1], in assay [2], in assay [4], in assay [5], in [6] and in [7] was above 100 µM each time. Moreover, the TGI in assay [8], in [9] and in [10] was above 100 µM throughout.
As for `CN(C)CCCN=c1c2ccccc2n(C)c2[nH]c(=O)n(C)c(=O)c12`, the TGI in [1] is 11.5 µM; in [2] it was 17.1 µM; in [3] it was 6.47 µM; in [4] it was 28 µM; in assay [5] it was 26.8 µM; in [6] it was 42.4 µM. For the same compound, the TGI was 22.4 µM in [7], 16.2 µM in assay [8], 36.2 µM in assay [9] and above 100 µM in [10].
For `COc1cc(C2c3cc4c(cc3OC(NNc3ccccc3)C2C)OCO4)cc(OC)c1O` (stereo unspecified), the TGI in assay [1] came out at 17.7 µM; in assay [2], 13.3 µM; in [3] it was 5.18 µM; in assay [4] it was 8.53 µM; in assay [5], 21.3 µM; in [6] it was 12 µM. The TGI was determined as 2.98 µM in assay [7], 2.75 µM in assay [8], 38.2 µM in assay [9] and 11.1 µM in assay [10].
In the case of `O=C1c2ccccc2C(=O)c2c(NCC3CO3)cccc21` (stereo unspecified), the TGI in assay [1] is above 100 µM; in assay [2], 27.6 µM; in [3], 15.8 µM; in assay [4], above 75 µM; in assay [5], above 63.7 µM; in [6], above 76.3 µM. Moreover, the TGI in [7] was above 100 µM; in assay [8], 23.7 µM; in assay [9], above 100 µM; in assay [10], 38 µM.
On to `Cc1ccc(S(=O)(=O)NCCCSCCO)cc1`, for which the TGI in assay [1], in [2], in assay [3], in assay [4], in [5] and in [6] was above 100 µM throughout. Further, the TGI in [8], in assay [9] and in assay [10] was above 100 µM each time.
As for `O=C(CBr)NCCc1c[nH]c2ccccc12`, the TGI in assay [1] was determined as 15 µM; in assay [2], 3.24 µM; in assay [3] it was 3.69 µM; in assay [4], 4.49 µM; in [5], 11.3 µM; in [6] it was 3.85 µM. For the same compound, the TGI came to 3.52 µM in [7], 4.44 µM in [8], 4 µM in assay [9] and 6.96 µM in assay [10].
With `COC(=O)CN(CC1O[C@@H]2OC(C)(C)O[C@@H]2C1NC(C)=O)C(=O)OCc1ccccc1` (stereo partly specified), the TGI in assay [1], in assay [2], in [3], in assay [4], in assay [5] and in assay [6] was above 100 µM in each case. Further, the TGI in assay [7], in assay [8], in [9] and in assay [10] was above 100 µM in each case.
As for `CCN(CCN(CC)C(=O)NC)C(=O)NC`, the TGI in [1], in [2], in [3], in assay [4], in [5] and in assay [8] was above 100 µM each time. This compound had a TGI in assay [10] above 100 µM.
Turning to `Cc1ccc(Cc2n[nH]c(=O)n2N2C(=O)c3ccccc3C2=O)cc1`, the TGI in assay [1], in assay [2], in [4], in [5], in [6] and in [7] was above 100 µM throughout. For the same compound, the TGI in assay [8], in assay [9] and in [10] was above 100 µM throughout.
Regarding `CC(=O)CC12NC(=O)N(C)N=C1N(C)C(=O)N(C)C2=O` (stereo unspecified), the TGI in assay [1], in [2], in assay [3], in assay [4], in [5] and in assay [6] was above 100 µM throughout. Also, the TGI in assay [7] was 72.9 µM; in assay [8], 43.3 µM; in assay [9], above 100 µM; in assay [10] it was above 100 µM.
